Patent US20230278996A1, “YKL-40 INHIBITORS AND THEIR THERAPEUTIC APPLICATIONS” (Molecure S.A., priority 2022, published 2023)
Structures can show the parent of a compound that is named as a salt.

What follows are compounds tested against YKL-40 (Homo sapiens (Human), UniProt P36222) (assay: YKL-40:4 assay, competitive chitin binding site AlphaScreen). Conditions: competition with biotinylated compound 4 (20 nM), YKL-40-histag 2.5 nM.
Sequence of YKL-40 (P36222 22-383): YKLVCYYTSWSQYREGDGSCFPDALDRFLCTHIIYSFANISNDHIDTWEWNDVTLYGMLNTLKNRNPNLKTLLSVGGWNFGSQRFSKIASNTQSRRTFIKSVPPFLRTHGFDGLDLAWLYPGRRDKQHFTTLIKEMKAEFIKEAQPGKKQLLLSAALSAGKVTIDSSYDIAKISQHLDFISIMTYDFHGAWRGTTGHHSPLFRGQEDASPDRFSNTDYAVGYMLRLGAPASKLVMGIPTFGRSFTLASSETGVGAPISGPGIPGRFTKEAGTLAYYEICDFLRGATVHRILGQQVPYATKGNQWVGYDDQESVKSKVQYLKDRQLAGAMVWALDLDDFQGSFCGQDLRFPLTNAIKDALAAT

| Structure (SMILES) | IC50 |
| --- | --- |
| C[C@H]1CN(C2CCN(c3c(F)cccc3F)CC2)[C@@H](Cc2ccc(Cl)cc2)CO1 [compound 123, (2S,5S)-5-(4-chlorobenzyl)-4-(1-(2,6-difluorophenyl)piperidin-4-yl)-2-methylmorpholine 2,2,2-trifluoroacetate] | > 100 µM |
| O=C1NCCN(C2CCN(c3ccccn3)CC2)[C@H]1Cc1ccc(Cl)cc1 [compound 149, (S)-3-(4-chlorobenzyl)-4-(1-(pyridin-2-yl)piperidin-4-yl)piperazin-2-one 2,2,2-trifluoroacetate] | > 100 µM |
| COC(=O)c1ccnc(N2CCC(N3C[C@H](C)OC[C@@H]3Cc3ccc(Cl)cc3)CC2)c1F [compound 122, methyl 2-(4-((2S,5S)-5-(4-chlorobenzyl)-2-methylmorpholino)piperidin-1-yl)-3-fluoroisonicotinate] | > 100 µM |
| C[C@H]1CN(C2CCN(c3cnc(C(F)(F)F)cn3)CC2)[C@@H](Cc2ccc(Cl)cc2)CO1 [compound 158, (2S,5S)-5-(4-chlorobenzyl)-2-methyl-4-(1-(5-(trifluoromethyl)pyrazin-2-yl)piperidin-4-yl)morpholine hydrochloride] | > 100 µM |
| C[C@H]1CN(C2CCN(c3ccnc(N)n3)CC2)[C@@H](Cc2ccc(Cl)cc2)CO1 [compound 67, 4-(4-((2S,5S)-5-(4-chlorobenzyl)-2-methylmorpholino)piperidin-1-yl)pyrimidin-2-amine 2,2,2-trifluoroacetate] | > 100 µM |
| C[C@@H](O)CN1C[C@H](Cc2ccc(Cl)cc2)N(C2CCN(c3ccccn3)CC2)C[C@@H]1C [compound 102, (R)-1-((2S,5S)-5-(4-chlorobenzyl)-2-methyl-4-(1-(pyridin-2-yl)piperidin-4-yl)piperazin-1-yl)propan-2-ol 2,2,2-trifluoroacetate] | 0.1 to 1 µM |
| CC(C)C[C@H]1CN(C2CCN(c3ccccn3)CC2)[C@@H](Cc2ccc(Cl)cc2)CN1C(=O)OC(C)(C)C [Example 2e, tert-butyl (2S,5S)-5-(4-chlorobenzyl)-2-isobutyl-4-(1-(pyridin-2-yl)piperidin-4-yl)piperazine-1-carboxylate] | > 100 µM |
| Clc1ccc(C[C@H]2CN3CCC[C@H]3CN2C2CCN(c3ccccn3)CC2)cc1 [Example 38, (3S,8aS)-3-(4-chlorobenzyl)-2-(1-(pyridin-2-yl)piperidin-4-yl)octahydropyrrolo[1,2-α]pyrazine 2,2,2-trifluoroacetate] | < 0.1 µM |
| COc1cccnc1N1CCC(N2C[C@H](C)OC[C@@H]2Cc2ccc(Cl)cc2)CC1 [compound 162, (2S,5S)-5-(4-chlorobenzyl)-4-(1-(3-methoxypyridin-2-yl)piperidin-4-yl)-2-methylmorpholine 2,2,2-trifluoroacetate] | > 100 µM |
| C[C@H]1CN(C2CCN(c3ccccc3C#N)CC2)[C@@H](Cc2ccc(Cl)cc2)CO1 [compound 119, 2-(4-((2S,5S)-5-(4-chlorobenzyl)-2-methylmorpholino)piperidin-1-yl)benzonitrile 2,2,2-trifluoroacetate] | > 100 µM |
| C[C@H]1CN(C2CCN(c3cc(CO)ccn3)CC2)[C@@H](Cc2ccc(Cl)cc2)CO1 [compound 130, (2-(4-((2S,5S)-5-(4-chlorobenzyl)-2-methylmorpholino)piperidin-1-yl)pyridin-4-yl)methanol 2,2,2-trifluoroacetate] | > 100 µM |
| C[C@H]1CN(C2CCN(c3nccc(C(F)(F)F)n3)CC2)[C@@H](Cc2ccc(Cl)cc2)CO1 [compound 146, (2S,5S)-5-(4-chlorobenzyl)-2-methyl-4-(1-(4-(trifluoromethyl)pyrimidin-2-yl)piperidin-4-yl)morpholine hydrochloride] | 1 to 10 µM |
| CN1C[C@H](Cc2ccc(Cl)cc2)N(C2CCN(c3cc(Cl)ccn3)CC2)C[C@@H]1CO [compound 50, ((2R,5S)-5-(4-chlorobenzyl)-4-(1-(4-chloropyridin-2-yl)piperidin-4-yl)-1-methyl-piperazin-2-yl)methanol] | < 0.1 µM |
| C[C@H]1CN(C2CCN(c3cc(F)ncn3)CC2)[C@@H](Cc2ccc(Cl)cc2)CO1 [Example 24, (2S,5S)-5-(4-chlorobenzyl)-4-(1-(6-fluoropyrimidin-4-yl)piperidin-4-yl)-2-methylmorpholine 2,2,2-trifluoroacetate] | > 100 µM |

The next lines start with the values.

| IC50 | Structure (SMILES) |
| --- | --- |
| > 100 µM | COC(=O)c1ccnc(F)c1N1CCC(N2C[C@H](C)OC[C@@H]2Cc2ccc(Cl)cc2)CC1 [compound 121, methyl 3-(4-((2S,5S)-5-(4-chlorobenzyl)-2-methylmorpholino)piperidin-1-yl)-2-fluoroisonicotinate] |
| > 100 µM | C[C@H]1CN(C2CCN(c3noc(=O)[nH]3)CC2)[C@@H](Cc2ccc(Cl)cc2)CO1 [compound 165, 3-(4-((2S,5S)-5-(4-chlorobenzyl)-2-methylmorpholino)piperidin-1-yl)-1,2,4-oxadiazol-5(4H)-one 2,2,2-trifluoroacetate] |
| > 100 µM | Cc1nnc(N2CCC(N3C[C@H](C)OC[C@@H]3Cc3ccc(Cl)cc3)CC2)s1 [compound 182, (2S,5S)-5-(4-chlorobenzyl)-2-methyl-4-(1-(5-methyl-1,3,4-thiadiazol-2-yl)piperidin-4-yl)morpholine 2,2,2-trifluoroacetate] |
| 10 to 100 µM | C[C@H]1CN(C2CCN(c3cc(O)ccn3)CC2)[C@@H](Cc2ccc(Cl)cc2)CO1 [compound 161, 2-(4-((2S,5S)-5-(4-chlorobenzyl)-2-methylmorpholino)piperidin-1-yl)pyridin-4-ol 2,2,2-trifluoroacetate] |
| > 100 µM | COC(=O)c1ccnc(N2CCC(N3C[C@H](C)OC[C@@H]3Cc3ccc(Cl)cc3)CC2)c1 [compound 124, methyl 2-(4-((2S,5S)-5-(4-chlorobenzyl)-2-methylmorpholino)piperidin-1-yl)isonicotinate] |
| 0.1 to 1 µM | COc1ccnc(N2CCC(N3C[C@H](C)OC[C@@H]3Cc3ccc(Cl)cc3)CC2)c1 [Example 29, (2S,5S)-5-(4-chlorobenzyl)-4-(1-(4-methoxypyridin-2-yl)piperidin-4-yl)-2-methylmorpholine 2,2,2-trifluoroacetate] |
| > 100 µM | C[C@H]1CN(C2CCN(c3ccncn3)CC2)[C@@H](Cc2ccc(Cl)cc2)CO1 [Example 26, (2S,5S)-5-(4-chlorobenzyl)-2-methyl-4-(1-(pyrimidin-4-yl)piperidin-4-yl)morpholine 2,2,2-trifluoroacetate] |
| 1 to 10 µM | C[C@H]1CN(C2CCN(c3cnccn3)CC2)[C@@H](Cc2ccc(Cl)cc2)CO1 [Example 12, (2S,5S)-5-(4-chlorobenzyl)-2-methyl-4-(1-(pyrazin-2-yl)piperidin-4-yl)morpholine 2,2,2-trifluoroacetate] |
| > 100 µM | C[C@H]1CN(C2CCN(c3ccc(C#N)cn3)CC2)[C@@H](Cc2ccc(Cl)cc2)CO1 [Example 19, 6-(4-((2S,5S)-5-(4-chlorobenzyl)-2-methylmorpholino)piperidin-1-yl)nicotinonitrile 2,2,2-trifluoroacetate] |
| 10 to 100 µM | CC[C@H]1CN(C2CCN(c3ccccn3)CC2)[C@@H](Cc2ccc(Cl)cc2)CN1C [compound 93, (2S,5S)-2-(4-chlorobenzyl)-5-ethyl-4-methyl-1-(1-(pyridin-2-yl)piperidin-4-yl)piperazine 2,2,2-trifluoroacetate] |
| 1 to 10 µM | C[C@H]1CN(C2CCN(c3ccc(F)cn3)CC2)[C@@H](Cc2ccc(Cl)cc2)CO1 [Example 9, (2S,5S)-5-(4-chlorobenzyl)-4-(1-(5-fluoropyridin-2-yl)piperidin-4-yl)-2-methylmorpholine 2,2,2-trifluoroacetate] |
